Data published in paper PMC9516332 (Frontiers in Oncology, 2022).
pIC50: −log10 of the molar value. Read-outs that look alike come from different tables or passages of the source.

System: 134 cancer cell lines
Experiment: Cell viability assay (ATPlite, 72 hours), IC50 on cancer cell line panel

COC(=O)N[C@@H](C)CNc1nccc(-c2cn(C(C)C)nc2-c2cc(Cl)cc(NS(C)(=O)=O)c2F)n1 [encorafenib]
pIC50 (Homo sapiens, MOLT-4, read-out: IC50 in cell proliferation assay, MOLT-4 cell line): 5.78
pIC50 (Homo sapiens, MV4-11, read-out: IC50 in cell proliferation assay, MV4-11 cell line (FLT3 ITD)): 5.64
pIC50 (Homo sapiens, MeWo, read-out: IC50 in cell proliferation assay, MeWo cell line): 6.00
pIC50 (Homo sapiens, NCCIT, read-out: IC50 in cell proliferation assay, NCC-IT cell line): 5.98
pIC50 (Homo sapiens, NCI-H82, read-out: IC50 in cell proliferation assay, cell line NCI-H82): 5.97
pIC50 (Homo sapiens, NCI-H460, read-out: IC50 in cell proliferation assay, NCI-H460 cell line): 5.93
pIC50 (Homo sapiens, NCI-H661, read-out: IC50 in cell proliferation assay, NCI-H661 cell line): 6.09
pIC50 (Homo sapiens, NCI-H716, read-out: IC50 in cell proliferation assay, cell line NCI-H716 (FGFR2-COL14A1)): 5.02
pIC50 (Homo sapiens, NCI-H1650, read-out: IC50 in cell proliferation assay, NCI-H1650 cell line (EGFR exon19del)): < 4.50
pIC50 (Homo sapiens, NCI-H1975, read-out: IC50 in cell proliferation assay, NCI-H1975 cell line (EGFR p.L858R + p.T790M)): 5.84
pIC50 (Homo sapiens, NCI-H2228, read-out: IC50 in cell proliferation assay, NCI-H2228 cell line (EML4-ALK)): 5.64
pIC50 (Homo sapiens, OVCAR-3, read-out: IC50 in cell proliferation assay, cell line OVCAR-3): 6.16
pIC50 (Homo sapiens, PFSK-1, read-out: IC50 in cell proliferation assay, cell line PFSK-1): 6.00
pIC50 (Homo sapiens, RL95-2, read-out: IC50 in cell proliferation assay, cell line RL95-2 (EGFR p.A289V)): 6.03
pIC50 (Homo sapiens, RPMI-7951, read-out: IC50 in cell proliferation assay, cell line RPMI-7951 (BRAF p.V600E)): 7.89
pIC50 (Homo sapiens, RS4-11, read-out: IC50 in cell proliferation assay, cell line RS4;11): 6.03
pIC50 (Homo sapiens, Rec1, read-out: IC50 in cell proliferation assay, cell line REC-1): 5.07
pIC50 (Homo sapiens, SHP77, read-out: IC50 in cell proliferation assay, cell line SHP-77): < 4.50
pIC50 (Homo sapiens, SK-BR-3, read-out: IC50 in cell proliferation assay, cell line SK-BR-3 (ERBB2 amplification)): < 4.50
pIC50 (Homo sapiens, SK-N-AS, read-out: IC50 in cell proliferation assay, cell line SK-N-AS): 5.95
pIC50 (Homo sapiens, SK-N-FI, read-out: IC50 in cell proliferation assay, cell line SK-N-FI): 5.48
pIC50 (Homo sapiens, SK-N-MC, read-out: IC50 in cell proliferation assay, cell line SK-N-MC): 6.01
pIC50 (Homo sapiens, SK-N-SH, read-out: IC50 in cell proliferation assay, cell line SK-N-SH (ALK p.F1174L)): 5.95
pIC50 (Homo sapiens, SNU-5, read-out: IC50 in cell proliferation assay, cell line SNU-5 (MET amplification)): 5.13
pIC50 (Homo sapiens, SNU-16, read-out: IC50 in cell proliferation assay, cell line SNU-16 (FGFR2 amplification)): 5.76
pIC50 (Homo sapiens, SNU-C2B, read-out: IC50 in cell proliferation assay, cell line SNU-C2B (EGFR p.R165Q)): 5.02
pIC50 (Homo sapiens, SU-DHL-1, read-out: IC50 in cell proliferation assay, cell line SU-DHL-1 (NPM1-ALK)): 5.67
pIC50 (Homo sapiens, SU-DHL-6, read-out: IC50 in cell proliferation assay, cell line SU-DHL-6): 5.24
pIC50 (Homo sapiens, SUP-T1, read-out: IC50 in cell proliferation assay, cell line SUP-T1): < 4.50
pIC50 (Homo sapiens, SW48, read-out: IC50 in cell proliferation assay, cell line SW48 (EGFR p.G719S)): 5.65
pIC50 (Homo sapiens, SW480, read-out: IC50 in cell proliferation assay, cell line SW480): 5.91
pIC50 (Homo sapiens, SW626, read-out: IC50 in cell proliferation assay, cell line SW626): 5.61
pIC50 (Homo sapiens, SW780, read-out: IC50 in cell proliferation assay, cell line SW780 (FGFR3-BAIAP2L1)): 4.70
pIC50 (Homo sapiens, SW837, read-out: IC50 in cell proliferation assay, cell line SW837): < 4.50
pIC50 (Homo sapiens, SW872, read-out: IC50 in cell proliferation assay, cell line SW872 (BRAF p.V600E)): 8.15
pIC50 (Homo sapiens, SW900, read-out: IC50 in cell proliferation assay, cell line SW900): 5.86
pIC50 (Homo sapiens, SW948, read-out: IC50 in cell proliferation assay, cell line SW948): 5.49
pIC50 (Homo sapiens, SW982, read-out: IC50 in cell proliferation assay, cell line SW982 (BRAF p.V600E)): 6.26
pIC50 (Homo sapiens, SW-620, read-out: IC50 in cell proliferation assay, cell line SW620): 5.74
pIC50 (Homo sapiens, T98G, read-out: IC50 in cell proliferation assay, cell line T98G): 5.78
pIC50 (Homo sapiens, TCC-SUP, read-out: IC50 in cell proliferation assay, cell line TCCSUP): 6.13
pIC50 (Homo sapiens, THP-1, read-out: IC50 in cell proliferation assay, cell line THP-1): 5.61
pIC50 (Homo sapiens, U2OS, read-out: IC50 in cell proliferation assay, cell line U2OS): 5.84
pIC50 (Homo sapiens, U-87 MG, read-out: IC50 in cell proliferation assay, cell line U-87MG ATCC): 5.98
pIC50 (Homo sapiens, U-118-MG, read-out: IC50 in cell proliferation assay, cell line U-118MG): 5.85
pIC50 (Homo sapiens, UMUC3, read-out: IC50 in cell proliferation assay, cell line UM-UC-3): 6.00
pIC50 (Hs766T, read-out: IC50 in cell proliferation assay, Hs 766T cell line): 5.72
pIC50 (L-82, read-out: IC50 in cell proliferation assay, L-82 cell line (NPM1-ALK)): 5.06
pIC50 (Rh30, read-out: IC50 in cell proliferation assay, cell line Rh30): 5.97
pIC50 (read-out: IC50 in cell proliferation assay, 11-18 cell line (EGFR p.L858R)): < 4.50
pIC50 (read-out: IC50 in cell proliferation assay, Hs 852.T cell line): 5.47
pIC50 (read-out: IC50 in cell proliferation assay, JAR cell line): 6.38
pIC50 (read-out: IC50 in cell proliferation assay, cell line 5637): 6.23
pIC50 (read-out: IC50 in cell proliferation assay, cell line A-388): 5.70
pIC50 (read-out: IC50 in cell proliferation assay, cell line DB): 5.92
pIC50 (read-out: IC50 in cell proliferation assay, cell line DEL (NPM1-ALK)): 5.19
pIC50 (read-out: IC50 in cell proliferation assay, cell line ES-2 (BRAF p.V600E)): 7.00
pIC50 (read-out: IC50 in cell proliferation assay, cell line PA-1): 6.08
pIC50 (read-out: IC50 in cell proliferation assay, cell line PC-3): 5.86
pIC50 (read-out: IC50 in cell proliferation assay, cell line RD): 5.79
pIC50 (read-out: IC50 in cell proliferation assay, cell line RKO (BRAF p.V600E)): 6.61
pIC50 (read-out: IC50 in cell proliferation assay, cell line RL): 4.53
pIC50 (read-out: IC50 in cell proliferation assay, cell line RT-4 (FGFR3-TACC3)): 5.42
pIC50 (read-out: IC50 in cell proliferation assay, cell line SR (NPM1-ALK)): 6.04
pIC50 (read-out: IC50 in cell proliferation assay, cell line T24): 5.98
pIC50 (read-out: IC50 in cell proliferation assay, cell line TT (RET p.C634W)): 5.29
pIC50 (read-out: IC50 in cell proliferation assay, cell line VA-ES-BJ): 5.95
